Assay results published in US9394289B2, “Inhibitors of c-fms kinase” (Janssen Pharmaceutica NV, priority 2006, dated 2016).
Structures can show the parent of a compound that is named as a salt. Where two headings read alike, the source gives them in different places.

How the values were obtained:
c-fms = c-fms (Homo sapiens (Human), UniProt P07333); assay: Autophosphorylation fluorescence polarization competition immunoassay for c-fms inhibition; type: biochemical; details: averages of three independent measurements; table head says 1 nM c-fms, method says 10 nM c-fms, 1 mM ATP; read-out: 1 nM c-fms; peptide Pi assay IC-50
Experimental: Fluorescence Polarization Competition Immunoassay
The assay buffer used was 100 mM 4-(2-hydroxyethyl)piperazine 1-ethanesulfonic acid (HEPES), pH 7.5, 1 mM 1,4-dithio-DL-threitol (DTT), 0.01% (v/v) Tween-20. Compounds were diluted in assay buffer containing 4% dimethylsulfoxide (DMSO) just prior to the assay. To each well, 5 μL of compound were added followed by the addition of 3 μL of a mix containing 33 nM c-fms (Johnson & Johnson PRD) and 16.7 mM MgCl2 (Sigma) in assay buffer. The kinase reaction was initiated by adding 2 μL of 5 mM ATP (Sigma) in assay buffer. […] Control reactions were ran in each plate: in positive and negative control wells, assay buffer (made 4% in DMSO) was substituted for the compound; in addition, positive control wells received 1.2 μL of 50 mM ethylenediaminetetraaceticacid (EDTA).
The plates were incubated at room temperature for 45 min. At the end of the incubation, the reaction was quenched with 1.2 μL of 50 mM EDTA (EDTA was not added to the positive control wells at this point; see above). Following a 5-min incubation, each well received 10 μL of a 1:1:3 mixture of anti-phosphotyrosine antibody, 10×, PTK green tracer, 10× (vortexed), FP dilution buffer, respectively (all from PanVera, cat. #P2837). The plate was covered, incubated for 30 min at room temperature and the fluorescence polarization was read on the Analyst. The instrument settings were: 485 nm excitation filter; 530 nm emission filter; Z height: middle of well; G factor: 0.93. […] The reported IC50 values are averages of three independent measurements.

[1] = test system: mouse bone-marrow derived macrophages (BMDM); assay: CSF-1-driven mouse bone-marrow derived macrophages proliferation assay (BrDU incorporation); type: cell-based; details: 30 hrs culture, read-out: mCSF driven proliferation BMDM (Mouse) IC-50
Experimental: CSF-1-Driven Mouse Bone-Marrow Derived Macrophages Assay
Macrophages are derived by culturing mouse bone marrow in alpha-MEM supplemented with 10% FCS and 50 ng/ml recombinant mouse CSF-1 in bacteriologic dishes. On the sixth day, macrophages are detached from dishes, washed, and resuspended to 0.05 million cells/ml in alpha-MEM containing 10% FCS. One hundred ul of cell suspension are distributed per well into 96 well culture plates. Wells are further supplemented with the addition of 50 ul media containing 15 ng/ml CSF-1, 3 uM Indomethacin, and 3× of a dilution series of test compounds. The cells are cultured for 30 hrs at 37 degrees and 5% CO2. During the final six hours, cultures are supplemented with an additional 30 ul of media containing a 1:500 dilution of bromodeoxyuridine (BrDU). At the end of the culture period, the plates are spun at 1000 RPM for 1 minute and 130 ul of media is removed with a pipet and replaced with 150 ul of fixative solution for 1 hour @ room temperature. The fixative is then dispelled from the plates and the plates allowed to air dry. Incorporation of BrDU into the fixed, dried cells is quantified using a specific ELISA.

Sequence of c-fms (P07333 20-972): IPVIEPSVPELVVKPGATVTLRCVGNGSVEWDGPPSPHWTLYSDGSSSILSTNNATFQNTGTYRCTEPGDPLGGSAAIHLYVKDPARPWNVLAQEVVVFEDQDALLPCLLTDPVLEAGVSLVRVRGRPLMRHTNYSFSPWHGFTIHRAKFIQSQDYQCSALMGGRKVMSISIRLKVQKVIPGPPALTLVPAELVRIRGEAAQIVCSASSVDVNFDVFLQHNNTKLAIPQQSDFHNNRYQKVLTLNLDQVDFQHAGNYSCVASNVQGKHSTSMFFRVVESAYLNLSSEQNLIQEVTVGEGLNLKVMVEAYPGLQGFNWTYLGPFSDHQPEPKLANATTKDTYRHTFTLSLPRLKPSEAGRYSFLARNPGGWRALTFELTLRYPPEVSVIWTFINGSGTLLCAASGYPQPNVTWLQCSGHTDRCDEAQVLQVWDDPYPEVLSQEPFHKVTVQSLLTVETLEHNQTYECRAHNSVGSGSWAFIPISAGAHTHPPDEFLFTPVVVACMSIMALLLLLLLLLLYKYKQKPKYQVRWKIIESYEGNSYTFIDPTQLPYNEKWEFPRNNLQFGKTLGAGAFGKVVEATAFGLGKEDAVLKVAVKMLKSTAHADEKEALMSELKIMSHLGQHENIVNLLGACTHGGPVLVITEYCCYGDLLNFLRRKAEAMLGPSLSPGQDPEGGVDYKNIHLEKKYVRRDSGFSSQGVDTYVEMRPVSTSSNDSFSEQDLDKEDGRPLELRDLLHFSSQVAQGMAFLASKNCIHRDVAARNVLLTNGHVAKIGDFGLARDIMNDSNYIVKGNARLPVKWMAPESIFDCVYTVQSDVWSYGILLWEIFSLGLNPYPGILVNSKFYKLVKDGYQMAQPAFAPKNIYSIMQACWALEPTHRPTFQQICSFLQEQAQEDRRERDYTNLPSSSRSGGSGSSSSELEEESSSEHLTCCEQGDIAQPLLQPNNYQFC

Row | Structure (SMILES) | IC50 (c-fms) [nM] | IC50 ([1]; Mus musculus, BMDM) [nM] | IC50 [1] [nM]
1 | CC1(C)CC=C(c2cc(C3(C#N)CC(C)(C)OC(C)(C)C3)ccc2NC(=O)c2nc(C#N)c[nH]2)CC1 [Example 95, 4-Cyano-1H-imidazole-2-carboxylic acid [4-(4-cyano-2,2,6,6-tetramethyl-tetrahydro-pyran-4-yl)-2-(4,4-dimethyl-cyclohex-1-enyl)-phenyl]-amide] | 26 | 29 | 
2 | CC1(C)CC=C(c2cc(C3(CO)CCOCC3)ccc2NC(=O)c2nc(C#N)c[nH]2)CC1 [Example 25, 4-Cyano-1H-imidazole-2-carboxylic acid [2-(4,4-dimethyl-cyclohex-1-enyl)-4-(4-hydroxymethyl-tetrahydro-pyran-4-yl)-phenyl]-amide] | 0.49 | 6.5 | 
3 | N#Cc1c[nH]c(C(=O)Nc2ccc(C3(C(=O)O)CCOCC3)cc2C2=CCCCC2)n1 [Example 18, 4-{4-[(4-Cyano-1H-imidazole-2-carbonyl)-amino]-3-cyclohex-1-enyl-phenyl}-tetrahydro-pyran-4-carboxylic acid] | 3.6 | 300 | 
4 | C[C@@H]1CC(O)(c2ccc(NC(=O)c3nc(C#N)c[nH]3)c(C3=CCC(C)(C)CC3)c2)C[C@H](C)O1 (stereo partly drawn) [Example 31, 4-cyano-1H-imidazole-2-carboxylic acid [2-(4,4-dimethyl-cyclohex-1-enyl)-4-(trans-4-hydroxy-cis-2,6-dimethyl-tetrahydro-pyran-4-yl)-phenyl]-amide] | 1.4 |  | 3
5 | CC1(C)CC=C(c2cc(C3(C#N)CCS(=O)(=O)CC3)ccc2NC(=O)c2nc(C#N)c[nH]2)CC1 [Example 87, 4-Cyano-1H-imidazole-2-carboxylic acid [4-(4-cyano-1,1-dioxo-hexahydro-1λ^6-thiopyran-4-yl)-2-(4,4-dimethyl-cyclohex-1-enyl)-phenyl]-amide] | 1.1 | 8.2 | 
6 | CC1(C)CC=C(c2cc(C3(O)CCS(=O)(=O)CC3)ccc2NC(=O)c2nc(C#N)c[nH]2)CC1 [Example 12, 4-Cyano-1H-imidazole-2-carboxylic acid [2-(4,4-dimethyl-cyclohex-1-enyl)-4-(4-hydroxy-1,1-dioxo-hexahydro-1λ^6-thiopyran-4-yl)-phenyl]-amide] | 1.1 | 31 | 
7 | CC1(C)CC=C(c2cc(C3(C(=O)O)CCOCC3)ccc2NC(=O)c2cc(C#N)c[nH]2)CC1 [Example 23, 4-[4-[(4-Cyano-1H-pyrrole-2-carbonyl)-amino]-3-(4,4-dimethyl-cyclohex-1-enyl)-phenyl]-tetrahydro-pyran-4-carboxylic acid] | 6.4 | > 300 | 
8 | CC1(C)CC=C(c2cc(C3(O)CC4(C)CCC(C)(C3)O4)ccc2NC(=O)c2nc(C#N)c[nH]2)CC1 (centres unmarked) [Example 93, 4-Cyano-1H-imidazole-2-carboxylic acid [2-(4,4-dimethyl-cyclohex-1-enyl)-4-(3-hydroxy-1,5-dimethyl-8-oxa-bicyclo[3.2.1]oct-3-yl)-phenyl]-amide] | 2.9 | 8.9 | 
9 | COC(=O)C1(c2ccc(NC(=O)c3nc(C#N)c[nH]3)c(C3=CCC(C)(C)CC3)c2)CCOCC1 [Example 16, 4-[4-[(4-Cyano-1H-imidazole-2-carbonyl)-amino]-3-(4,4-dimethyl-cyclohex-1-enyl)-phenyl]-tetrahydro-pyran-4-carboxylic acid methyl ester] | 0.67 | 46 | 
10 | CC1(C)CC=C(c2cc(C3(N)CCOCC3)ccc2NC(=O)c2ncc(C#N)[nH]2)CC1 [Example 5, 5-Cyano-1H-imidazole-2-carboxylic acid [4-(4-amino-tetrahydro-pyran-4-yl)-2-(4,4-dimethyl-cyclohex-1-enyl)-phenyl]-amide] | 0.5 | 2.4 | 
11 | CN(C)CCOC1(c2ccc(NC(=O)c3ncc(C#N)[nH]3)c(C3=CCC(C)(C)CC3)c2)CCOCC1 [Example 2, 5-Cyano-1H-imidazole-2-carboxylic acid [4-[4-(2-dimethylamino-ethoxy)-tetrahydro-pyran-4-yl]-2-(4,4-dimethyl-cyclohex-1-enyl)-phenyl]-amide trifluoroacetic acid salt] | 0.42 | 2.2 | 
12 | CON1C(C)(C)CC(O)(c2ccc(NC(=O)c3nc(C#N)c[nH]3)c(C3=CCC(C)(C)CC3)c2)CC1(C)C [Example 89, 4-Cyano-1H-imidazole-2-carboxylic acid [2-(4,4-dimethyl-cyclohex-1-enyl)-4-(4-hydroxy-1-methoxy-2,2,6,6-tetramethyl-piperidin-4-yl)-phenyl]-amide] | 13 | 20 | 
13 | C[C@@H]1CC(O)(c2ccc(NC(=O)c3nc(C#N)c[nH]3)c(C3=CCC(C)(C)CC3)c2)C[C@H](C)O1 (stereo partly drawn) [Example 30, 4-Cyano-1H-imidazole-2-carboxylic acid [2-(4,4-dimethyl-cyclohex-1-enyl)-4-(cis-4-hydroxy-cis-2,6-dimethyl-tetrahydro-pyran-4-yl)-phenyl]-amide] | 3.2 |  | 7
14 | CN(C)C1(c2ccc(NC(=O)c3ncc(C#N)[nH]3)c(C3=CCC(C)(C)CC3)c2)CCOCC1 [Example 7, 5-Cyano-1H-imidazole-2-carboxylic acid [4-(4-dimethylamino-tetrahydro-pyran-4-yl)-2-(4,4-dimethyl-cyclohex-1-enyl)-phenyl]-amide] | 0.67 | 11 | 
15 | CS(=O)(=O)C1(c2ccc(NC(=O)c3ncc(C#N)[nH]3)c(C3=CCCCC3)c2)CCOCC1 [Example 34, 5-Cyano-1H-imidazole-2-carboxylic acid [2-cyclohex-1-enyl-4-(4-methanesulfonyl-tetrahydro-pyran-4-yl)-phenyl]-amide] | 1.5 | 17.2 | 
16 | CC1(C)CC=C(c2cc(C3(O)CC4CCC(C3)O4)ccc2NC(=O)c2nc(C#N)c[nH]2)CC1 (centres unmarked) [Example 92, 4-Cyano-1H-imidazole-2-carboxylic acid [2-(4,4-dimethyl-cyclohex-1-enyl)-4-(3-hydroxy-8-oxa-bicyclo[3.2.1]oct-3-yl)-phenyl]-amide] | 2.2 | 12 | 
17 | CC(=O)N1CCC(O)(c2ccc(NC(=O)c3nc(C#N)c[nH]3)c(C3=CCC(C)(C)CC3)c2)CC1 [Example 35, 4-Cyano-1H-imidazole-2-carboxylic acid [4-(1-acetyl-4-hydroxy-piperidin-4-yl)-2-(4,4-dimethyl-cyclohex-1-enyl)-phenyl]-amide] | 0.7 | 5.8 | 
18 | CC1(C)CC=C(c2cc(C3(C(N)=O)CCOCC3)ccc2NC(=O)c2nc(C#N)c[nH]2)CC1 [Example 24, 4-Cyano-1H-imidazole-2-carboxylic acid [4-(4-carbamoyl-tetrahydro-pyran-4-yl)-2-(4,4-dimethyl-cyclohex-1-enyl)-phenyl]-amide] | 0.8 | 14 | 
19 | CN1CCN(C2(c3ccc(NC(=O)c4ncc(C#N)[nH]4)c(C4=CCC(C)(C)CC4)c3)CCOCC2)CC1 [Example 8, 5-Cyano-1H-imidazole-2-carboxylic acid {2-(4,4-dimethyl-cyclohex-1-enyl)-4-[4-(4-methyl-piperazin-1-yl)-tetrahydro-pyran-4-yl]-phenyl}-amide] | 4 | 15 | 
20 | N#Cc1c[nH]c(C(=O)Nc2ccc(C3(C(N)=O)CCOCC3)cc2C2=CCCCC2)n1 [Example 19, 4-Cyano-1H-imidazole-2-carboxylic acid [4-(4-carbamoyl-tetrahydro-pyran-4-yl)-2-cyclohex-1-enyl-phenyl]-amide] | 1.8 | 19 | 
21 | CC1(C)CC=C(c2cc(C3(N4CCOCC4)CCOCC3)ccc2NC(=O)c2ncc(C#N)[nH]2)CC1 [Example 6, 5-Cyano-1H-imidazole-2-carboxylic acid [2-(4,4-dimethyl-cyclohex-1-enyl)-4-(4-morpholin-4-yl-tetrahydro-pyran-4-yl)-phenyl]-amide] | 1.6 | 15 | 
22 | CC1(C)CC=C(c2cc(C3(O)CC(C)(C)N(CC(F)(F)F)C(C)(C)C3)ccc2NC(=O)c2nc(C#N)c[nH]2)CC1 [Example 91, 4-Cyano-1H-imidazole-2-carboxylic acid {2-(4,4-dimethyl-cyclohex-1-enyl)-4-[4-hydroxy-2,2,6,6-tetramethyl-1-(2,2,2-trifluoro-ethyl)-piperidin-4-yl]-phenyl}-amide] | ~210 | 61 | 
